The values below come from article PMC10120462, “Styrylquinazoline derivatives as ABL inhibitors selective for different DFG orientations” (Journal of Enzyme Inhibition and Medicinal Chemistry, 2023).

One assay deals with T1, BRK (Homo sapiens, UniProt Q13882).
T1 construct: purchased Promega
Kind of assay: Tyrosine kinase assay (Kinase Selectivity System TK-2, ADP-Glo). Type of assay: biochemical. The settings on record: 1 h incubation, mean ± SD of four experiments.

Assay [1] concerns K562 cells. Kind of assay: Analysis of mRNA expression (RT-qPCR). The settings on record: 16 h; IS1 50 µM, IS8 12 µM, IS10 20 µM, imatinib 2 µM, GNF-2 2 µM. Type of assay: cell-based, human. From the text:
In the next step, the inhibitory potential of the tested compounds at the gene and protein levels was verified in K562 cells. For this purpose, we examined changes in the expression of the ABL signalling pathway and ABL downstream targets after exposure to IS1, IS8 and IS10. […] The enhanced transcription of the ABL gene might be related to the low protein level that was reached after exposure to the tested drugs. Thus, the cellular machinery could induce increased protein synthesis to counteract the effects of inhibition. […] The second gene studied, SRC, is involved in signal transduction from growth factors and receptors. Similar to ABL, the Src protein has oncogenic activity and is overexpressed in cancer cells. It is also important to emphasise that both kinases form a specific direct signalling network, as […].
Reverse transcription was carried out with 1 μg total RNA using a ProtoScript M-MuLV First Strand cDNA Synthesis Kit (New England BioLabs). The RT-qPCR was performed using a CTX96 Real-Time PCR Detection System (Biorad) in a 10 μL reaction volume containing Luna Universal qPCR Master Mix (New England BioLabs), specific primer pair mix and cDNA. The PCR reaction was performed as follows: initial denaturation at 95 °C for 60 s; followed by 40 cycles of denaturation at 95 °C, 15 s; annealing (primer-specific temperature for 30 s) and extension at 72 °C for 30 s. Melting curve analysis was used to determine the specific PCR products. The results were analysed based on comparison of the expression of the target genes with the reference gene – HPRT1 using the 2^−^ΔΔ^CT method. Experiments were performed at least four times.
Background: Quantitative PCR measures a nucleic acid by following its amplification.

For a further assay, the target named is T2, Lyn B (Homo sapiens, UniProt P07948).
T2 construct: purchased Promega
T2 sequence (P07948 1-491 isoform P07948-2): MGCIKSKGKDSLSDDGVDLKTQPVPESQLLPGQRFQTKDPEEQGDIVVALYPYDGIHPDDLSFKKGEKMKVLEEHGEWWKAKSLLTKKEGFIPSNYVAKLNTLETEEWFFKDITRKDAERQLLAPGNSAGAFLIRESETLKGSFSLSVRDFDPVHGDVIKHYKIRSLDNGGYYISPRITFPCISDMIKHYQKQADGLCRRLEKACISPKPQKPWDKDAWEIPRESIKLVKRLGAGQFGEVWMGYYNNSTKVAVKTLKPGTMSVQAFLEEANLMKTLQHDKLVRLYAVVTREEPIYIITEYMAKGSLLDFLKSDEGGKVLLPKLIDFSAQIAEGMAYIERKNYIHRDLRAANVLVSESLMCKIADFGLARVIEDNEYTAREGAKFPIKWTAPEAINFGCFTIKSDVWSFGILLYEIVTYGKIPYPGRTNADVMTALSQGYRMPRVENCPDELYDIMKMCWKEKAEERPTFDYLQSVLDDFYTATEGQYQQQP
Kind of assay: Tyrosine kinase assay (Kinase Selectivity System TK-2, ADP-Glo). The conditions noted are these: 1 h incubation, mean ± SD of four experiments. Type of assay: biochemical. (In ADP-Glo the light output rises with the ADP produced.)

Assay [2] relates to K562 cells. Nature of the assay: Cell cycle assay (Muse Cell-Cycle Kit, flow cytometry). The assay is classed as cell-based, human. The settings on record: 16 h; for Fraction of cells in the G2/M phase: control 28.68%; for Population of cells in the G0/G1 phase: untreated 42.56%. The method, then: The interesting inhibitory potential of ABL kinase and the high antiproliferative activity of several styrylquinazoline derivatives prompted us to further investigate their mechanism of action.
K562 cells were seeded in 3 cm Petri dishes (Nunc) at a density of 150,000 cells per well and incubated under standard conditions at 37 °C for 24 h. […] After 16 h of treatment, assays were performed using a Muse Cell-Cycle Kit (Millipore) according to the supplier’s instructions. Briefly, leukaemia cells were collected, washed in cold PBS, and centrifuged. Cells were then fixed in ice-cold 70% ethanol and stored at −20 °C overnight. The next day, leukaemia cells were washed with cold PBS, centrifuged and resuspended in Muse™ Cell Cycle Reagent. Samples were incubated for 30 min at room temperature in the dark. After staining, the levels of cellular subpopulations in each cell cycle phase were determined using a Muse Cell Analyser (Millipore). Experiments were performed at least four times.
On the technique in general: A flow cytometer gives signals particle by particle.

A further assay deals with T3, Fyn A (Homo sapiens, UniProt P06241).
T3 construct: purchased Promega
T3 sequence (P06241 whole entry): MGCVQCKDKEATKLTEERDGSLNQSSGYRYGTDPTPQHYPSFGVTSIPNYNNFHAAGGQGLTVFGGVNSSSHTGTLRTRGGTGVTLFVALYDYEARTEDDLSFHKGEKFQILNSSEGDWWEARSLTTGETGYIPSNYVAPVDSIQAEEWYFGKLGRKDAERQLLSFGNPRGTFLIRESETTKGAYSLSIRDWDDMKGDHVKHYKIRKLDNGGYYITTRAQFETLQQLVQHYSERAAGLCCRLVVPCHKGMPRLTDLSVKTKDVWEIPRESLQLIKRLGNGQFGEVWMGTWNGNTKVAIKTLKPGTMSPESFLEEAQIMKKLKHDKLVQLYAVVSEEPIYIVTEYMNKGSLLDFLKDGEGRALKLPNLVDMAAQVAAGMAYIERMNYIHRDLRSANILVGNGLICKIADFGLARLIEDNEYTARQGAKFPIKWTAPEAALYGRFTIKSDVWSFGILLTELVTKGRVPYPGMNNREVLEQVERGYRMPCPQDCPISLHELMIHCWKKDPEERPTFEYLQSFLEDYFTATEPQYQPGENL
Nature of the assay: Tyrosine kinase assay (Kinase Selectivity System TK-2, ADP-Glo). Type of assay: biochemical. The conditions noted are these: 1 h incubation, mean ± SD of four experiments. In a few lines:
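Full-length, unphosphorylated non-receptor tyrosine kinases with regulatory domains, supplemented with ATP and incubated 1 h with peptide substrate. ADP formation read by ADP-Glo luminescence. Values are percent kinase inhibition from at least four experiments.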

T1 sequence (Q13882 whole entry): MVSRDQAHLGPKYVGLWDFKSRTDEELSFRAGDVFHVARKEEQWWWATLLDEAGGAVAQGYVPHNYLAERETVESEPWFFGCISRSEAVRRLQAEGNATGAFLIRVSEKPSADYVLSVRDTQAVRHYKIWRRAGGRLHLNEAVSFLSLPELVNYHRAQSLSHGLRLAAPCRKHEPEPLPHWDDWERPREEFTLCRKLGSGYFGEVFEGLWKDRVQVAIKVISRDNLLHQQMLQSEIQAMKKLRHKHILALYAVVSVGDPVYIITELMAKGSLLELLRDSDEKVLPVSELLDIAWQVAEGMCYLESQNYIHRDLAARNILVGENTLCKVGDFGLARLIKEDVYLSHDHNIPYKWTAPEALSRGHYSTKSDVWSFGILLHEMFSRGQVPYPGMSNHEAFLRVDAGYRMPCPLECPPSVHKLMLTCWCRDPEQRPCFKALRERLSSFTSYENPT

As for `COc1ccccc1/C=C/c1nc(Sc2ccc3c(c2)OCO3)c2ccccc2n1` [IS10, 5-{2-[(E)-2–(2-methoxyphenyl)ethenyl]quinazolin-4-ylthio}-2H-1,3-benzodioxole], the inhibition (commonly the change of the read-out against control, counted positive when it falls) at 0.5 µM is 25 ± 8.51% against BRK, 0% against Lyn B and 21.5 ± 5.71% against Fyn A. The “CCNE2 expression (mRNA)” value in the assay with K562 cells [1] is listed as “significant decrease”. In addition, the “Expression of the ABL gene (mRNA)” value with K562 cells [1] is recorded as “significantly enhanced”. Besides, the “Population of cells in the S phase” value in the assay with K562 cells [2] (concentration not given, control 23.66%) is on record as 12.85%. Further, the “Fraction of cells in the G2/M phase” value with K562 cells [2] (concentration not given) was found to be 46.35%. Also, the “Population of cells in the G0/G1 phase” value with K562 cells [2] (concentration not given) worked out at 33.00%.

As for `COc1ccccc1/C=C/c1nc(Sc2ccccc2Cl)c2ccccc2n1` [IS1, 2-[(E)-2–(2-methoxyphenyl)ethenyl]-4–(2-chlorophenylthio)quinazoline], the “Inhibition of tyrosine kinase activity [%] BRK” value on BRK (0.5 μM) is 51.27 ± 9.04%. The inhibition at 0.5 µM at BRK amounted to 51%; against Lyn B, 67.1 ± 5.1%; at Fyn A, 90.4 ± 9.9%. In addition, the “Expression of the ABL gene (mRNA)” value with K562 cells [1] is “slight non-significant decrease”. Moreover, the “SRC mRNA levels” value in the assay on K562 cells [1] is given as “significant decrease”. Also, the “Cell cycle arrest (phase)” value in the assay with K562 cells [2] is “cell cycle arrest in G0/G1 phase”. The “Population of cells in the G0/G1 phase” value in the assay on K562 cells [2] (concentration not given) amounted to 50.85%.

On to `COc1ccccc1/C=C/c1nc(Sc2cccc(O)c2)c2ccccc2n1` [IS8, 3-{2-[(E)-2–(2-methoxyphenyl)ethenyl]quinazolin-4-ylthio}phenol], for which the inhibition at 0.5 µM against BRK is 15.8 ± 2.25%; against Lyn B it was 0%; against Fyn A it was 0%. Moreover, the “CCNE2 expression (mRNA)” value in the assay on K562 cells [1] is on record as “significant decrease”. Also, in the assay with K562 cells [2] (12 µM), the “Fraction of cells in the G2/M phase” value worked out at 39.38%. Moreover, the “Cell cycle arrest (phase)” value in the assay on K562 cells [2] is listed as “arrested the cells in G2/M phase”.

For the compound `NC(=O)c1cccc(-c2cc(Nc3ccc(OC(F)(F)F)cc3)ncn2)c1` [GNF-2, reference compound], the inhibition at 0.5 µM at BRK, against Lyn B and at Fyn A was 0% throughout. Moreover, the “Expression of the ABL gene (mRNA)” value in the assay with K562 cells [1] is listed as “significantly enhanced”. In addition, in the assay with K562 cells [1], the “SRC mRNA levels” value is given as “significant decrease”. Further, the “Cell cycle arrest (phase)” value with K562 cells [2] is “inhibition of G0/G1 phase”.
